Legend:
Assay in all cases: drug sensitivity score (DSS3, normalised partial AUC of % inhibition dose-response) (DSS (score)); higher = more sensitive (stronger inhibition of viability); extreme values may be limits of the assay
FMOC04 = patient-derived high-grade serous ovarian cancer cells; details: 72 h; library: FO5A; assay format: 2D, 384-well, CellTiter-Glo
How it was run: (§1)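 Patient-derived ovarian cancer cells (early passage, under 10) were dispensed onto 384-well flat clear-bottom plates pre-plated with compounds at five concentrations covering a 10,000-fold range. Plates were incubated 72 h at 37 °C, 5% CO2, and viability was read with CellTiter-Glo. Data were processed in Breeze. The drug sensitivity score (DSS3) is a partial area under the percent-inhibition dose-response curve, divided by the log of the upper asymptote; higher means more sensitive.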

FMOC11 = patient-derived high-grade serous ovarian cancer cells; details: 72 h; library: FO5A; assay format: 2D, 384-well, CellTiter-Glo
How it was run: as §1

FMOC09 = patient-derived high-grade serous ovarian cancer cells; details: 72 h; library: FO5A; assay format: 2D, 384-well, CellTiter-Glo
How it was run: as §1

FMOC02_3 = patient-derived low-grade serous ovarian cancer cells; details: 72 h; library: FO5A; assay format: 2D, 384-well, CellTiter-Glo
How it was run: as §1

FMOC06 = patient-derived mucinous ovarian cancer cells; details: 72 h; library: FO5A; assay format: 2D, 384-well, CellTiter-Glo
How it was run: as §1

FMOC17 = patient-derived low-grade serous ovarian cancer cells; details: 72 h; library: FO5A; assay format: 2D, 384-well, CellTiter-Glo
How it was run: as §1

FMOC02_2 = patient-derived low-grade serous ovarian cancer cells; details: 72 h; library: FO5A; assay format: 2D, 384-well, CellTiter-Glo
How it was run: as §1

FMOC24 = patient-derived high-grade serous ovarian cancer cells; details: 72 h; library: FO5A; assay format: 2D, 384-well, CellTiter-Glo
How it was run: as §1

FMOC02_1 = patient-derived low-grade serous ovarian cancer cells; details: 72 h; library: FO5A; assay format: 2D, 384-well, CellTiter-Glo
How it was run: as §1

FMOC03 = patient-derived mucinous ovarian cancer cells; details: 72 h; library: FO5A; assay format: 2D, 384-well, CellTiter-Glo
How it was run: as §1

FMOC14 = patient-derived high-grade serous ovarian cancer cells; details: 72 h; library: FO5A; assay format: 2D, 384-well, CellTiter-Glo
How it was run: as §1

FMOC25_1 = patient-derived low-grade serous ovarian cancer cells; details: 72 h; library: FO4B; assay format: 2D, 384-well, CellTiter-Glo
How it was run: as §1

FMOC28 = patient-derived low-grade serous ovarian cancer cells; details: 72 h; library: FO5A; assay format: 2D, 384-well, CellTiter-Glo
How it was run: as §1

FMOC22 = patient-derived mucinous ovarian cancer cells; details: 72 h; library: FO5A; assay format: 2D, 384-well, CellTiter-Glo
How it was run: as §1

FMOC25_2 = patient-derived low-grade serous ovarian cancer cells; details: 72 h; library: FO5A; assay format: 2D, 384-well, CellTiter-Glo
How it was run: as §1

FMOC27 = patient-derived low-grade serous ovarian cancer cells; details: 72 h; library: FO5A; assay format: 2D, 384-well, CellTiter-Glo
How it was run: as §1

Oc1ccc2c(c1)CC[C@H](c1ccccc1)[C@@H]2c1ccc(OCCN2CCCC2)cc1 [Lasofoxifene]
drug sensitivity score (FMOC04): 0
drug sensitivity score (FMOC11): 0
drug sensitivity score (FMOC09): 0
drug sensitivity score (FMOC02_3): 0
drug sensitivity score (FMOC06): 0
drug sensitivity score (FMOC17): 0
drug sensitivity score (FMOC02_2): 0
drug sensitivity score (FMOC24): 0
drug sensitivity score (FMOC02_1): 0
drug sensitivity score (FMOC03): 0
drug sensitivity score (FMOC14): 1.1
drug sensitivity score (FMOC25_1): 0
drug sensitivity score (FMOC28): 0
drug sensitivity score (FMOC22): 0
drug sensitivity score (FMOC25_2): 0
drug sensitivity score (FMOC27): 0

Nc1cccc2c1CN(C1CCC(=O)NC1=O)C2=O (configuration not stated) [Lenalidomide]
drug sensitivity score (FMOC04): 0
drug sensitivity score (FMOC11): 0
drug sensitivity score (FMOC09): 0
drug sensitivity score (FMOC02_3): 2.4
drug sensitivity score (FMOC06): 0.1
drug sensitivity score (FMOC17): 0
drug sensitivity score (FMOC02_2): 0
drug sensitivity score (FMOC24): 0.6
drug sensitivity score (FMOC02_1): 0
drug sensitivity score (FMOC03): 0
drug sensitivity score (FMOC14): 0
drug sensitivity score (FMOC25_1): 0
drug sensitivity score (FMOC28): 0
drug sensitivity score (FMOC22): 0
drug sensitivity score (FMOC25_2): 0
drug sensitivity score (FMOC27): 0

COc1cc2nccc(Oc3ccc(NC(=O)NC4CC4)c(Cl)c3)c2cc1C(N)=O [Lenvatinib]
drug sensitivity score (FMOC04): 0
drug sensitivity score (FMOC11): 0
drug sensitivity score (FMOC09): 0
drug sensitivity score (FMOC02_3): 0
drug sensitivity score (FMOC06): 0
drug sensitivity score (FMOC17): 0
drug sensitivity score (FMOC02_2): 0
drug sensitivity score (FMOC24): 0
drug sensitivity score (FMOC02_1): 0
drug sensitivity score (FMOC03): 0
drug sensitivity score (FMOC14): 0
drug sensitivity score (FMOC25_1): 0
drug sensitivity score (FMOC28): 0
drug sensitivity score (FMOC22): 0
drug sensitivity score (FMOC25_2): 0.1
drug sensitivity score (FMOC27): 0

N#Cc1ccc(C(c2ccc(C#N)cc2)n2cncn2)cc1 [Letrozole]
drug sensitivity score (FMOC04): 0
drug sensitivity score (FMOC11): 0
drug sensitivity score (FMOC09): 0
drug sensitivity score (FMOC02_3): 0
drug sensitivity score (FMOC06): 0
drug sensitivity score (FMOC17): 0
drug sensitivity score (FMOC02_2): 0
drug sensitivity score (FMOC24): 0
drug sensitivity score (FMOC02_1): 0
drug sensitivity score (FMOC03): 0
drug sensitivity score (FMOC14): 0
drug sensitivity score (FMOC25_1): 0
drug sensitivity score (FMOC28): 0
drug sensitivity score (FMOC22): 0
drug sensitivity score (FMOC25_2): 0
drug sensitivity score (FMOC27): 0

Cc1ccc(F)c(NC(=O)Nc2ccc(-c3cccc4[nH]nc(N)c34)cc2)c1 [Linifanib]
drug sensitivity score (FMOC04): 0
drug sensitivity score (FMOC11): 0
drug sensitivity score (FMOC09): 0
drug sensitivity score (FMOC02_3): 0
drug sensitivity score (FMOC06): 0
drug sensitivity score (FMOC17): 0
drug sensitivity score (FMOC02_2): 0
drug sensitivity score (FMOC24): 0
drug sensitivity score (FMOC02_1): 0
drug sensitivity score (FMOC03): 0
drug sensitivity score (FMOC14): 0
drug sensitivity score (FMOC25_1): 0
drug sensitivity score (FMOC28): 0
drug sensitivity score (FMOC22): 0
drug sensitivity score (FMOC25_2): 0
drug sensitivity score (FMOC27): 0

C[C@]1(O)C[C@@H](c2nc(-c3ccc4ccc(-c5ccccc5)nc4c3)c3c(N)nccn32)C1 [Linsitinib]
drug sensitivity score (FMOC04): 2.5
drug sensitivity score (FMOC11): 0.1
drug sensitivity score (FMOC09): 0.1
drug sensitivity score (FMOC02_3): 6.9
drug sensitivity score (FMOC06): 0.8
drug sensitivity score (FMOC17): 0.6
drug sensitivity score (FMOC02_2): 2.7
drug sensitivity score (FMOC24): 2.1
drug sensitivity score (FMOC02_1): 1.2
drug sensitivity score (FMOC03): 0.1
drug sensitivity score (FMOC14): 0
drug sensitivity score (FMOC25_1): 3.7
drug sensitivity score (FMOC28): 4.9
drug sensitivity score (FMOC22): 0
drug sensitivity score (FMOC25_2): 5.8
drug sensitivity score (FMOC27): 0

Nc1nc(OCc2cc(Br)cs2)c2[nH]cnc2n1 [Lomeguatrib]
drug sensitivity score (FMOC04): 0
drug sensitivity score (FMOC11): 0
drug sensitivity score (FMOC09): 0
drug sensitivity score (FMOC02_3): 0.4
drug sensitivity score (FMOC06): 0
drug sensitivity score (FMOC17): 0
drug sensitivity score (FMOC02_2): 0.8
drug sensitivity score (FMOC24): 0
drug sensitivity score (FMOC02_1): 0
drug sensitivity score (FMOC03): 0
drug sensitivity score (FMOC14): 0
drug sensitivity score (FMOC25_1): 0
drug sensitivity score (FMOC28): 2.6
drug sensitivity score (FMOC22): 0
drug sensitivity score (FMOC25_2): 1.4
drug sensitivity score (FMOC27): 0

Cc1c(F)cc(C(=O)NC2CC2)cc1-c1ccc(C(=O)NCC(C)(C)C)cn1 [Losmapimod]
drug sensitivity score (FMOC04): 0
drug sensitivity score (FMOC11): 1.4
drug sensitivity score (FMOC09): 0
drug sensitivity score (FMOC02_3): 0
drug sensitivity score (FMOC06): 1
drug sensitivity score (FMOC17): 0
drug sensitivity score (FMOC02_2): 0
drug sensitivity score (FMOC24): 0
drug sensitivity score (FMOC02_1): 0.1
drug sensitivity score (FMOC03): 0
drug sensitivity score (FMOC14): 0
drug sensitivity score (FMOC25_1): 0
drug sensitivity score (FMOC28): 0
drug sensitivity score (FMOC22): 0
drug sensitivity score (FMOC25_2): 0
drug sensitivity score (FMOC27): 0

CC[C@H](C)C(=O)O[C@H]1C[C@@H](C)C=C2C=C[C@H](C)[C@H](CC[C@@H]3C[C@@H](O)CC(=O)O3)[C@H]21 [Lovastatin]
drug sensitivity score (FMOC04): 0
drug sensitivity score (FMOC11): 1.3
drug sensitivity score (FMOC09): 3.3
drug sensitivity score (FMOC02_3): 3.9
drug sensitivity score (FMOC06): 0.9
drug sensitivity score (FMOC17): 1.1
drug sensitivity score (FMOC02_2): 0.3
drug sensitivity score (FMOC24): 2.5
drug sensitivity score (FMOC02_1): 0
drug sensitivity score (FMOC03): 0.5
drug sensitivity score (FMOC14): 0
drug sensitivity score (FMOC25_1): 0
drug sensitivity score (FMOC28): 0.1
drug sensitivity score (FMOC22): 2.1
drug sensitivity score (FMOC25_2): 1
drug sensitivity score (FMOC27): 0

CNC(=O)c1cccc2cc(Oc3ccnc4cc(OCC5(N)CC5)c(OC)cc34)ccc12 [Lucitanib]
drug sensitivity score (FMOC04): 0.4
drug sensitivity score (FMOC11): 1.1
drug sensitivity score (FMOC09): 1.2
drug sensitivity score (FMOC02_3): 1.7
drug sensitivity score (FMOC06): 0.3
drug sensitivity score (FMOC17): 0.2
drug sensitivity score (FMOC02_2): 0.4
drug sensitivity score (FMOC24): 1.45
drug sensitivity score (FMOC02_1): 2.6
drug sensitivity score (FMOC03): 0.1
drug sensitivity score (FMOC14): 0
drug sensitivity score (FMOC25_1): 0.3
drug sensitivity score (FMOC28): 4.1
drug sensitivity score (FMOC22): 0.2
drug sensitivity score (FMOC25_2): 1.4
drug sensitivity score (FMOC27): 1.4

O=C(O)CC[C@H]1CC[C@@](c2cc(F)ccc2F)(S(=O)(=O)c2ccc(Cl)cc2)CC1 [MK-0752]
drug sensitivity score (FMOC04): 0
drug sensitivity score (FMOC11): 0
drug sensitivity score (FMOC09): 0
drug sensitivity score (FMOC02_3): 0.7
drug sensitivity score (FMOC06): 0.3
drug sensitivity score (FMOC17): 0
drug sensitivity score (FMOC02_2): 0
drug sensitivity score (FMOC24): 0
drug sensitivity score (FMOC02_1): 0
drug sensitivity score (FMOC03): 0
drug sensitivity score (FMOC14): 0
drug sensitivity score (FMOC25_1): 0
drug sensitivity score (FMOC28): 0.2
drug sensitivity score (FMOC22): 0
drug sensitivity score (FMOC25_2): 0
drug sensitivity score (FMOC27): 0

NC1(c2ccc(-c3nc4ccn5c(=O)[nH]nc5c4cc3-c3ccccc3)cc2)CCC1 [MK-2206]
drug sensitivity score (FMOC04): 1.75
drug sensitivity score (FMOC11): 0.9
drug sensitivity score (FMOC09): 2.7
drug sensitivity score (FMOC02_3): 6.9
drug sensitivity score (FMOC06): 4.8
drug sensitivity score (FMOC17): 4.2
drug sensitivity score (FMOC02_2): 7.5
drug sensitivity score (FMOC24): 1.5
drug sensitivity score (FMOC02_1): 4.9
drug sensitivity score (FMOC03): 2.5
drug sensitivity score (FMOC14): 2
drug sensitivity score (FMOC25_1): 4.9
drug sensitivity score (FMOC28): 5.5
drug sensitivity score (FMOC22): 0.8
drug sensitivity score (FMOC25_2): 3
drug sensitivity score (FMOC27): 1.5

— the supplement of paper PMC9938120
